In article PMC6025875, “Genetic manipulation of Leishmania donovani threonyl tRNA synthetase facilitates its exploration as a potential therapeutic target” (PLoS Neglected Tropical Diseases, 2018):

Legend:
[1] = target: T1, threonyl tRNA synthetase (LdThrRS) (Leishmania donovani, UniProt A0A3S7X901); assay: ITC at […]°C (N = […]); also inhibits aminoacylation of the purified enzyme, IC50 […]; assay type: binding
T1 construct: gene LdCL_350019100; full-length recombinant LdThrRS with N-terminal His6 tag (rLdThrRS, pET30a, E. coli BL21 (DE3))

[2] = substrate: C[C@@H](O)[C@H](N)C(=O)O; assay: purified protein

In the case of `C[C@@H]1C[C@H](C)C[C@H](C)[C@@H](O)CC(=O)O[C@H]([C@@H]2CCC[C@H]2C(=O)O)C/C=C/C=C(/C#N)[C@H](O)[C@@H](C)C1` [borrelidin], the Kd [1] is reported as 40 nM.

B1: threonyl tRNA synthetase (LdThrRS) (Leishmania donovani) (protein)
chain: MSGKKKAAEATVDLATLAEPGFWRQRVEIFEQLWQQQQNRYESMKAPIKVSLPDGKVMDAESWVTCPLDIAKRLSNSLPDKVIVARVNEALWDLTRPFEADCQLELLDWDDKDAREVFWHSSSHVLGYALERIFDTKLSVGPALEEGGFFYEGLTNRPVSESDYKAIESAMQELVKQKMPYQRLEVSKEDALRLFGYTEFKSKILASKVPDGGSCTVYRCGMLIDPCRGPHLPDTGRVKAFAVTKNSSSYFEGKAENEVLQRVYGISFPKNPMLTEWKTIQEEAAKRDHRVIGRQQNLFNFHEVSPGSAFWLPHGTRIYNTLVEFLRKKYRRCGFQEVISPNMYSSKLWMVSGHWEKYADNMFCTKCEKEDFGLKPMNCPGHCIMFASQPHSYKELPIRYADFGVLHRNELSGALTGLTRVRRFQQDDAHIFCRMDQITDEMEGQMQFLSDVYGVLGFKFYFYHSTRPANKLGSDALWDQSESYLRTALNRFCGIPEELPDPLHPDQRFHYDGKPDSVKKMKALMKKAERCEDPNAWKGPTNGGDGWIENAGDGAFYGPKIDIVVEDALRRRHQCATIQLDFNLPSRFGLKYTLPAAEKDETTVSPTEKQKHADPALTASSPAVEDCVSKPKPGTYEAAVRDLGIDLELDANQARPVMIHRAILGSLERSIAILCEHFGGDWPFWLSPRQVMVVPVSASNYEYSQQVRDTMHDAGFHADVDNGAATLDKKIRNAEKARYNFILVVGQKEQDATAVNIRARGEKRLGNKSLVEAVQWLKELADTHNREY
Work on B1 yielded a Km [2] of 250 ± 30 µM.
